In PMC6906440, “The vertebrate Aqp14 water channel is a neuropeptide-regulated polytransporter” (Communications Biology, 2019):

Columns and labels:
Test in all cases: radiolabelled uptake in Xenopus oocytes
Format in all cases: cell-based
SaAqp14 [1] = target: T1, SaAqp14 (Sparus aurata, UniProt A0A6B9KHM1); settings: 1 mM glycerol, isotonic, pH 7.5; labelled compound; channel transport
T1 construct: full-length cDNA from brain RNA in pT7Ts; Xenopus laevis oocytes (15 ng cRNA); residues 261-276 TQNAMRAKQANKQENN
T1 sequence (A0A6B9KHM1 1-276): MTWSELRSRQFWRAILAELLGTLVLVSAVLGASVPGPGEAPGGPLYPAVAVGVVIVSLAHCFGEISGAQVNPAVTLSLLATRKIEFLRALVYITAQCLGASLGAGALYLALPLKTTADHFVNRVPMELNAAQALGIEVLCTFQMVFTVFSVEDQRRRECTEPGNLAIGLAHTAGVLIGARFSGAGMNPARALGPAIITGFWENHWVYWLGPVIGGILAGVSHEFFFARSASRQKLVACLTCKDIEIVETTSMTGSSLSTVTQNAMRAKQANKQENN

SsAqp14 [2] = target: T2, SsAqp14 (Salmo salar, UniProt A0A6B9KBC3); settings: 1 mM glycerol, isotonic, pH 7.5; labelled compound; channel transport
T2 construct: full-length cDNA from kidney RNA in pT7Ts; Xenopus laevis oocytes (15 ng cRNA)
T2 sequence (A0A6B9KBC3 1-277): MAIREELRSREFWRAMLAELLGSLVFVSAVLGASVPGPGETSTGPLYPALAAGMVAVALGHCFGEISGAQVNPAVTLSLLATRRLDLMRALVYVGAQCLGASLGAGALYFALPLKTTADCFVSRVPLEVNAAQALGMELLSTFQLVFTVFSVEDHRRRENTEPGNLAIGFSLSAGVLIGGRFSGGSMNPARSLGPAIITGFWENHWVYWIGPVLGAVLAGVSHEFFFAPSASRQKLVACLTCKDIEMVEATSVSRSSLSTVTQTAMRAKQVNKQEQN

DrAqp14 [3] = target: T3, DrAqp14 (Danio rerio, UniProt A0A0G2L4D1); settings: 1 mM glycerol, isotonic, pH 7.5; labelled compound; channel transport
T3 construct: full-length cDNA from brain RNA in pT7Ts; Xenopus laevis oocytes (15 ng cRNA)
T3 sequence (A0A0G2L4D1 1-277): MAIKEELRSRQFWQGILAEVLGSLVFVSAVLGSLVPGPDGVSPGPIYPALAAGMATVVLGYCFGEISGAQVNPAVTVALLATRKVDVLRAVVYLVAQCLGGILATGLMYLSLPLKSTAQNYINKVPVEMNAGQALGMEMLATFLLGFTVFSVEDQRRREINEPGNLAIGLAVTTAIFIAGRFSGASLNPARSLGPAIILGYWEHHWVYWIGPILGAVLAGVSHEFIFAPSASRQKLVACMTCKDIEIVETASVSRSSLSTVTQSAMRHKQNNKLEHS

DrAqp14 [4] = target: T3, DrAqp14; settings: 1 mM urea, isotonic, pH 7.5; labelled compound; channel transport
SsAqp14 [5] = target: T2, SsAqp14; settings: 1 mM urea, isotonic, pH 7.5; labelled compound; channel transport
SaAqp14 [6] = target: T1, SaAqp14; settings: 1 mM urea, isotonic, pH 7.5; labelled compound; channel transport

SMILES: OCC(O)CO [glycerol]
- glycerol uptake (SaAqp14 [1]): Oocytes injected with SaAqp14 and SsAqp14 are also slightly permeable to glycerol, urea
- glycerol uptake (SsAqp14 [2]): Oocytes injected with SaAqp14 and SsAqp14 are also slightly permeable to glycerol, urea
- glycerol uptake (DrAqp14 [3]): as for SaAqp14 and SsAqp14 show a lesser permeability to glycerol and methylamine

SMILES: NC(N)=O [urea]
- urea uptake (DrAqp14 [4]): oocytes expressing DrAqp14 are highly permeable to urea and hydrogen peroxide
- urea uptake (SsAqp14 [5]): Oocytes injected with SaAqp14 and SsAqp14 are also slightly permeable to glycerol, urea
- urea uptake (SaAqp14 [6]): Oocytes injected with SaAqp14 and SsAqp14 are also slightly permeable to glycerol, urea
